These results are taken from US20070155803A1, “Protease inhibitors” (ProZymex A/S, priority 2003, published 2007).

By IC50 is commonly meant the concentration that gives 50% inhibition.

Square brackets hold non-standard residues; d marks the D form. Peptide text beside a SMILES is read from it. Phe(3-F) = N[C@@H](Cc1cccc(F)c1)C(=O)O; hPhe = N[C@@H](CCc1ccccc1)C(=O)O; Abu = CC[C@H](N)C(=O)O; azaGly = NNC(=O)O

Experiment [1] concerns the target T1, Human DPP-I (Homo sapiens, UniProt P53634).
T1 construct: purchased UniZyme A/S
As to the kind of experiment: Human Dipeptidyl Peptidase I (DPP-I) assay, AFC substrate. The class given is biochemical. The settings on record: Gly-Phe-AFC substrate, pH 6.0, read-out: Primary enzymatic screening (IC50) DPP-I.
Experimental: Human Dipeptidyl Peptidase I (DPP-I) Assay
Using this assay, the IC50 value of a compound of the invention as a DPP-I inhibitor was determined using an AFC substrate.
100 mM sodium phosphate (8.9 g Na2HPO4; M=177.99), 150 mM KCl (5.6 g KCl; M=74.6) and 1.5 mM EDTA (279 mg EDTA; M=372.2) was dissolved in 500 mL H2O, and pH was adjusted to 6.0. Cysteine*HCl (Sigma C-1276; M=157.6), 1 mg/mL assay buffer, corresponding to 6 mM, was added to the solution for activation of the DPP-I enzyme.
Gly-Phe-AFC*TFA (Enzyme Systems Products AFC-033) was used as the substrate for determination of IC50 values. […] The substrate was solubilized in DMSO to give a 7.5 mM stock solution (2.2 mg of substrate was added to 0.5 mL DMSO).
Human DPP-I (hDDP-I; obtained from UniZyme A/S, DK-2970 Horsholm, Denmark) was stored at −20° C. in a buffer containing 2.5 mM Na-phosphate, 150 mM NaCl, 2 mM cysteamine, 50% glycerol, pH 7.0 at a concentration of 2.5 mg/mL. This stock solution was diluted 200 times in the assay buffer.
Th assay was performed in 96-well plates. […] The excitation wavelength was 400 nm, and the emission was measured at 505 nm for 10 minutes at 37° C. […] In the software (SOFTmax Pro) used for data collection from the fluorometer (Molecular Devices: Gemini XS), it was erisured that the measured slopes were linear (R^2>0.99). […]

The target in experiment [2] is T2, CYP1A2 (Homo sapiens, UniProt P05177).
T2 construct: purchased PanVera Vivid CYP1A2 Blue Screening Kit; host or cells: insect cells infected with baculovirus (microsomes)
T2 sequence (P05177 2-516 limits assumed): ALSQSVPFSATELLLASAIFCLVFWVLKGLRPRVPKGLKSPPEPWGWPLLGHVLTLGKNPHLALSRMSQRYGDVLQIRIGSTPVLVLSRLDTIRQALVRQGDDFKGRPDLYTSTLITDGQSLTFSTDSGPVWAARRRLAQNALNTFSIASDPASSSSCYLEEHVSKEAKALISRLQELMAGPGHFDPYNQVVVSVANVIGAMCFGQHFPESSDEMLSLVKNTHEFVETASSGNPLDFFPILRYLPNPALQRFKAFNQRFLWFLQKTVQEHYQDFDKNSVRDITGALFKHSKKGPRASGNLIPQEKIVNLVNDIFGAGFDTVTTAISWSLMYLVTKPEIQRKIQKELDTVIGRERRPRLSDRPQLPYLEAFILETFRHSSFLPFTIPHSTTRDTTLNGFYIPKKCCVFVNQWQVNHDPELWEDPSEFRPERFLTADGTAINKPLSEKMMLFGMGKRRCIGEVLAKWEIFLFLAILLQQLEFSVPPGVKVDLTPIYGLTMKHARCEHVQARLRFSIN
Kind of experiment: Human CYP1A2 assay (Vivid CYP1A2 Blue Screening Kit). The class given is in vitro ADME. Conditions: 20 μM cutoff; read-out: Metabolism: CYP enzymes (20 μM cutoff or IC50) CYP1A2. The procedure:
This assay was used to determine the effect of a compound of the invention on the CYP1A2 liver metabolizing enzyme.
Vivid® CYP1A2 Blue Screening Kit from PanVera was used.
Vivid®CYP450 Reaction Buffer I: 200 mM potassium phosphate buffer, pH 8.
CYP1A2 baculosoniese® reagent: CYP1A2 and […] (P450-specific content: 1.1 μM). Microsomes prepared from insect cells that were infected with baculovirus containing the cDNA for human CYP1A2 and rabbit cytochrome P450 reductase.
Regenerating System: 333 mM glucose-6-phosphate and 40 U/mL glucose-6-phosphate dehydrogenase in 100 mM potassium phosphate buffer, pH 8.
Vivid® CYP1A2 Blue Substrate.
Vivid® Blue Standard: 3-cyano-7-hydroxycoumarin.
10 mM NADP^+ in 100 mM potassium phosphate buffer, pH 8.
(§1) Tubes thawed on ice. 2× reaction buffer dispensed (room temperature) in two eppendorf tubes (for Mix A and Mix B).
(§2) Controls or compounds of the invention: Diluted to a concentration of 50 μM. Positive control compound: α-naphthoflavone.
(§3) Negative controls: DMSO and H2O.
Mix A: 485 μL reaction buffer, 10 μL regeneration system, 5 μL Baculosome reagent. Mixed gently and placed on ice. […]
In a 96-well plate (Costar c-3904), 40 μL of 50 μM sample dispensed. […] Fluorescence determined (Molecular Devices, SPECTRAmax Gemini EM): Ex: 409 nm, Em: 460 nm, at 37° C. for 20 min. (Automix: 5 s, top read.).

For experiment [3], the target named is T3, cellular rat DPP-I (RBL-2H3 cells) (Rattus norvegicus, UniProt P80067).
T3 construct: The RBL-2H3 cells (basophilic leukaemia cell line), were obtained from the American Type Culture Collection; endogenous in cells; host or cells: RBL-2H3 cells (ATCC)
T3 sequence (P80067 25-462): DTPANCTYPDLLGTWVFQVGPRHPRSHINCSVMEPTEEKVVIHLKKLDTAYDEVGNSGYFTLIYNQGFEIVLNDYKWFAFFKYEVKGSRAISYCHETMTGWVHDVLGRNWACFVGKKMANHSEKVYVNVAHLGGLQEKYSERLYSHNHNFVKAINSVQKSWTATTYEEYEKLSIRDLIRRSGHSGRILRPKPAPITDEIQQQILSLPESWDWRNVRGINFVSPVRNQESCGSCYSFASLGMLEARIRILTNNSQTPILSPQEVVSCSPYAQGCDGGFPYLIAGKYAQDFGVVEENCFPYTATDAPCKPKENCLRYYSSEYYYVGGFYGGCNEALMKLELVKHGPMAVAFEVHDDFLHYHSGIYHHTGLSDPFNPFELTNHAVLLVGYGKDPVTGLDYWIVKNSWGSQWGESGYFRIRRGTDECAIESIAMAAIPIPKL
As to the kind of experiment: Cellular DPP-I assay. In kind it is cell-based. Conditions: concentration and time not given. How it is done:
The following assay was used to the determine the inhibitory effect of compounds of the invention on cellular rat DPP-I.
The RBL-2H3 cells (basophilic leukaemia cell line), were obtained from the American Type Culture Collection. Cells were cultured at 37° C. in humidified air atmosphere with 5% CO2. Cells were grown in complete media (CM) consisting of RPMI (GIBCO) supplemented with 10% heat-inactivated foetal bovine serum (FBS; GIBCO), 100 U/mL penicillin and 100 ug/mL streptomycin (GIBCO).
All cell-based experiments employing inhibitors of DPP-I were performed by addition of the compound (kept below −20° C. as a 10 mM stock solution in DMSO (Sigma)) for indicated time and concentrations to sub-confluent cell cultures growing on culture dishes. All experiments were set up in triplicates. Following the treatment, cells were washed twice in ice-cold PBS (Sigma) and scraped from the culture dish. After another wash in PBS cells were lysed in ice-cold H2O containing 0.3% Triton×100. An additional volume of buffer containing 40 mM MOPS, 2M NaCl, 2 mM EDTA and 20% of glycerol was added. The cell lysate was clarified by centrifugation at 3000 rpm for 10 min. The resulting supernatant was transferred to eppendorf tubes. The Coomassie Plus Protein Assay (Pierece) was used to determine protein levels of the samples.
In Vitro Measurement of DPP-I Activity: […]

The target of experiment [4] is T4, CYP2D6 (Homo sapiens, UniProt P10635).
T4 construct: purchased PanVera Vivid CYP2D6 Cyan Screening Kit
As to the kind of experiment: CYP2D6 assay (Vivid CYP2D6 Cyan Screening Kit). Conditions: 20 μM cutoff; read-out: Metabolism: CYP enzymes (20 μM cutoff or IC50) CYP2D6. In kind it is in vitro ADME. How it is done: as §1, §2, §3
Mix A: 485 μL reaction buffer, 10 μL regeneration system, 5 μL Baculosome reagent. Mixed gently and placed on ice.
Mix B: 88.5 μL reaction buffer, 1.5 μL substrate, 10 μL 10 mM NADP^+.
In a 96-well plate (Costar c-3904), 40 μL of 50 μM sample dispensed. 50 μl Mix A added. Incubated 20 min. at rt. Then, 10 μl of Mix B added. Fluorescence determined (Molecular Devices, SPECTRAmax Gemini EM): Ex: 409 nm, Em: 460 nm, at 37° C. for 20 min. (Automix: 5 s, top read.).
Following the procedure for CYP1A2, using the appropriate kits below, the effect of a compound of the invention on the other CYP enzymes was determined:
Vivid® CYP2D6 Cyan Screening Kit from PanVera.

T1 sequence (P53634 231-394 limits assumed): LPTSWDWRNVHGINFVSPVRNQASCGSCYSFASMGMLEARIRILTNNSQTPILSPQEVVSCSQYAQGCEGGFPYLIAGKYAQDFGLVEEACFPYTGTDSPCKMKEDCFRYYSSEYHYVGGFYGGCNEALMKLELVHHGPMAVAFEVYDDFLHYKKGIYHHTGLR
T1 sequence (P53634 395-463 limits assumed): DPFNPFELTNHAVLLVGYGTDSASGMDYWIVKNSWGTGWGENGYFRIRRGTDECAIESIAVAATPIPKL
T1 sequence (P53634 25-143 limits assumed): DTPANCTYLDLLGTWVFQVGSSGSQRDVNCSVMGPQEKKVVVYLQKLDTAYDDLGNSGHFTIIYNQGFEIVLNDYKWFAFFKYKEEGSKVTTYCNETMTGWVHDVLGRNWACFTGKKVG
T4 sequence (P10635 whole entry): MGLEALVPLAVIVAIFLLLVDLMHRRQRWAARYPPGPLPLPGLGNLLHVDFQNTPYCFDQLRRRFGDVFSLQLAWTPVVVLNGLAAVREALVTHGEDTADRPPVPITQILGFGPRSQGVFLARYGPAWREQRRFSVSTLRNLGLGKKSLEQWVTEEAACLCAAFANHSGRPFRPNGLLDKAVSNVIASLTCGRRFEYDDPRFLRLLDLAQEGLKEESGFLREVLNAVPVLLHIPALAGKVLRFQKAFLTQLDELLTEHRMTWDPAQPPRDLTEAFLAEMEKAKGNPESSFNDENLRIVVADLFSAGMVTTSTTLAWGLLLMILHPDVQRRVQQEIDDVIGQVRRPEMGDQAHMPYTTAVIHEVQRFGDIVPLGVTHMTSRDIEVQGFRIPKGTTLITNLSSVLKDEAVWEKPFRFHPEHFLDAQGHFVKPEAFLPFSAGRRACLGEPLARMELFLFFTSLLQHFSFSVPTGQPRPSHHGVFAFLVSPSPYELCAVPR

On to `CC[C@H](N)C(=O)NNC(=O)N[C@@H](CCc1ccccc1)C(=O)N[C@@H](Cc1cccc(F)c1)C(N)=O` [Example 11, 1-(2S-2-Aminobutanoyl)-4-[2S-N-[2S-3-(m-fluorophenyl)propan-2-yl-amide]-4-phenylbutan-2-yl-amide]semicarbazide] (H-[Abu][azaGly][hPhe][Phe(3-F)]-NH2), for which the values for the IC50 in experiment [1], in experiment [2] and in experiment [4] were 0.04 ± 0.006 µM, over 20 µM and over 20 µM, respectively. Besides, the “Cellular (% inhibition) DPP-I (RBL-2H3 cells)” value in experiment [3] is reported as 54%.
